From patent US11939305B1, “Ethyl 2-(5-(3-fluorophenyl)-4-phenyl-4H-1,2,4-triazol-3-ylthio)acetate as an antimicrobial compound” (KING FAISAL UNIVERSITY, priority 2023, dated 2024)

Assays:
Assay type in all cases: cell-based
[1] = system: Staphylococcus aureus; experiment: Agar plate disc-diffusion, antibacterial inhibition zone
Description: (§1) The agar plate disc-diffusion method was applied. […] The discs were then placed onto the surface of agar plates (nutrient agar for bacteria and Sabouraud's dextrose agar for fungi) seeded with the test organism. Each plate contained 15 mL of the agar medium, previously seeded with 0.2 mL of the broth culture of each organism pregrown for 18 hours. The plates were incubated at 37° C. for 48 hours, and 72 hours for fungi. The inhibition zones were measured in mm. Discs impregnated with DMSO were used as a control, and its inhibition zone was subtracted from the tested compound actual inhibition zone.

[2] = system: Bacillus cereus; experiment: as above
Description: as §1

[3] = system: Pseudomonas aeruginosa; experiment: as above
Description: as §1

[4] = system: Escherichia coli; experiment: as above
Description: as §1

[5] = system: Aspergillus flavus; experiment: Agar plate disc-diffusion, antifungal inhibition zone
Description: as §1

[6] = system: Chrysosporium keratinophilum; experiment: as above
Description: as §1

[7] = system: different microbes; experiment: Antimicrobial screening, overall statement; conditions: against different microbes (bacteria and fungi of Tables 1 and 2)
Description: The agar plate disc-diffusion method was applied. Sterilized filter papers (6 mm in diameter) were wetted with 10 μL of a solution of ethyl 2-(5-(3-fluorophenyl)-4-phenyl-4H-1,2,4-triazol-3-ylthio)acetate (III) to be tested, containing 10 mg/mL in DMSO, and the discs were allowed to air dry. The discs were then placed onto the surface of agar plates (nutrient agar for bacteria and Sabouraud's dextrose agar for fungi) seeded with the test organism. Each plate contained 15 mL of the agar medium, previously seeded with 0.2 mL of the broth culture of each organism pregrown for 18 hours. The plates were incubated at 37° C. for 48 hours, and 72 hours for fungi. The inhibition zones were measured in mm. Discs impregnated with DMSO were used as a control, and its inhibition zone was subtracted from the tested compound actual inhibition zone.

[8] = A = concentration of comp. = 10,000 μL
[9] = B = concentration of comp. = 30,000 μL
[10] = C = concentration of comp. = 50,000 μL

Compound | inhibition zone [1, 8] | inhibition zone [1, 9] | inhibition zone [1, 10] | inhibition zone [2, 8] | inhibition zone [2, 9] | inhibition zone [2, 10] | inhibition zone [3, 8] | inhibition zone [3, 9] | inhibition zone [3, 10] | inhibition zone [4, 8] | inhibition zone [4, 9] | inhibition zone [4, 10] | inhibition zone [5, 8] | inhibition zone [5, 9] | inhibition zone [5, 10] | inhibition zone [6, 8] | inhibition zone [6, 9] | inhibition zone [6, 10] | antimicrobial activity (in words) [7]
O=C(O)c1cn(C2CC2)c2cc(N3CCNCC3)c(F)cc2c1=O [Cip., ciprofloxacin, reference compound] | 43 mm | 44 mm | 53 mm | 29 mm | 30 mm | 42 mm | 29 mm | 30 mm | 53 mm | 30 mm | 39 mm | 60 mm | 29 mm | 30 mm | 42 mm | 29 mm | 30 mm | 53 mm | 
CCOC(=O)CSc1nnc(-c2cccc(F)c2)n1-c1ccccc1 [III, ethyl 2-(5-(3-fluorophenyl)-4-phenyl-4H-1,2,4-triazol-3-ylthio)acetate] | 18 mm | 21 mm | 30 mm | 24 mm | 27 mm | 39 mm | 25 mm | 26 mm | 44 mm | 26 mm | 34 mm | 50 mm | 20 mm | 23 mm | 29 mm | 25 mm | 29 mm | 47 mm | excellent antimicrobials activities
